Measurements reported in paper PMC9394284, “Discovery of Novel Dual Adenosine A2A and A1 Receptor Antagonists with 1H-Pyrazolo[3,4-d]pyrimidin-6-amine Core Scaffold as Anti-Parkinson’s Disease Agents” (Pharmaceuticals, 2022).
Read-outs that look alike come from different tables or passages of the source.

Legend:
[1] = pharmacokinetics and bioavailability in mouse plasma; type: in vivo, Crl:CD-1 mice
Experimental: Male Crl:CD-1 mice of 9~10 weeks of age were purchased from Charles River Laboratories, USA and maintained at standard food and water ad libitum in temperature-controlled room with 12 h on-off light cycle before the experiment. All procedures described were reviewed and approved by the Institutional Animal Care and Use Committee (IACUC) at Frontage Laboratories Inc. For PO dosing, mice were given 11o dissolved in DMSO: PEG400 (1:3, v:v) via gavage. For IV dosing, 11o solubilized in DMSO: PEG400: saline (1:3:6, v:v) were injected into tail veins at dose volume of 1 mL/kg. For IN dosing, 11o solubilized in DMSO and 25 μL of the appropriate dosing solution was placed near the nares to allow animal to inhale the dose. Three mice were sampled from each group for each blood and brain collection time point. Time points are 0.5, 1, 2, 4, 8, 24 h for PO and IN dosing and 0.083, 1, 2, 4, 8 and 24 h for IV dosing. Mice were euthanized by terminal retro-orbital blood collection under isoflurane anesthesia, followed by opening of the thoracic cavity per facility SOPs. A target volume of 1 mL was collected into tubes containing K3EDTA anti-coagulant, inverted several times and held on wet ice until centrifuged under refrigeration (set at 5 °C for 10 min at 2000× g). Resulting plasma were stored in a freezer set to maintain −70 °C until analyzed for 11o concentration. Brain was removed from each animal and weighed following termination, snap frozen and stored until later use. Plasma and brain PK analysis was conducted using WinNolin Version 6.2.1 (Pharsight, Mountain View, CA, USA), operating as a validated software system. Noncompartmental analysis was conducted using the extravascular administration model for oral dosing and the IV bolus model for IV dosing. The peak plasma and brain concentration, time to achieve peak plasma concentration, half-life, and area under the plasma concentration-time curve (Cmax, Tmax, T1/2 and AUC) were calculated from mean plasma concentrations for each sampling time/dose group for 11o. Nominal blood collection times were used for calculation of PK parameters. Dose proportionality was assessed, and bioavailability was calculated for PO dosing.

A2B receptors = molecular target: T1, A2B receptors (Homo sapiens, UniProt P29275); test: radioligand binding to human A2B receptors, HEK-293 membranes, [3H]MRS1754
T1 construct: purchased PerkinElmer ES-013-M
T1 sequence (P29275 1-332): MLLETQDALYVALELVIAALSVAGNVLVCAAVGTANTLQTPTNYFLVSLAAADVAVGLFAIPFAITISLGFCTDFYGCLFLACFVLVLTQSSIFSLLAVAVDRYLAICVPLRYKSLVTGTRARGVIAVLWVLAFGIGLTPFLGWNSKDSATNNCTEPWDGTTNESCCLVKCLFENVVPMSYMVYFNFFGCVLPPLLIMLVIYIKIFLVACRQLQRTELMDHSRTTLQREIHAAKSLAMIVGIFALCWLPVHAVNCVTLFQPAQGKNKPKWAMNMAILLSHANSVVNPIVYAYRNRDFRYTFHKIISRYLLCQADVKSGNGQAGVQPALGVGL
Experimental: The radioligand-binding assays for adenosine receptors were performed at Eurofins Discovery Services (Panlabs, Taiwan). Briefly, stock solutions of the compounds were prepared in DMSO and further diluted with the incubation buffer to the desired concentration. Final DMSO concentrations in the assay were 1.0%. For adenosine A1 screening, a 10 μg aliquots of membrane preparations from human recombinant CHO-K1 cells stably expressing A1 receptors (CHO-K1-hA1AR clone3, EPDST, R200510) were incubated with 1 nM [^3H]DPCPX in incubation buffer (20 mM HEPES, pH 7.4, 10 mM MgCl2, 100 mM NaCl 1.40 nM) for 90 min at 25 °C. Nonspecific binding was estimated in the presence of 100 μM R(-)-PIA. Membranes were filtered and washed 3 times and the filters were counted to determine specifically bound [^3H]DPCPX. Chemical compounds were screened at 10 μM. For A2A screening, membrane preparations from human recombinant HEK-293 cells stably expressing A2A receptors (PerkinElmer, RBHA2AM) were incubated with 0.05 μM [^3H]CGS-21680 in incubation buffer (50 mM Tris-HCl, pH 7.4, 10 mM MgCl2, 1 mM EDTA, 2 U/mL Adenosine Deaminase) for 90 min at 25 °C. Nonspecific binding was estimated in the presence of 50.0 μM NECA. Membranes were filtered and washed 3 times and the filters were counted to determine [^3H]CGS-21680 specifically bound. […] Membranes were filtered and washed 3 times and the filters were counted to determine [^3H]MRS1754 specifically bound. […]
IC50 values were determined by a nonlinear, least-squares regression analysis using MathIQ^TM (ID Business Solutions Ltd., Guildford, UK). Where inhibition constants (Ki) were presented, the Ki values were calculated using Cheng and Prusoff equation [18] using the observed IC50 of the compound, the concentration of radioligand employed in the assay, and the historical values for the KD of the ligand (obtained experimentally at Eurofins Panlabs, Inc.). The Hill coefficient (nH), which defines the slope of the competitive binding curve, was calculated using MathIQ^TM.

[2] = male, Crl:CD-1, inhaled or intranasal, mouse plasma, 10 mg/kg IN
[3] = male, Crl:CD-1, mouse plasma, 1 mg/kg IV
[4] = male, Crl:CD-1, mouse plasma, 1 mg/kg PO
[5] = male, Crl:CD-1, mouse plasma, 3 mg/kg PO
[6] = male, Crl:CD-1, mouse plasma, 10 mg/kg PO
[7] = average of duplicate experiments

## Cc1cc(Cn2ncc3c(-c4cccc(C#N)c4F)nc(N)nc32)ccc1N [11o, 3-(6-Amino-1-(4-amino-3-methylbenzyl)-1H-pyrazolo[3,4-d]pyrimidin-4-yl)-2-fluorobenzonitrile]
[1]; male, Crl:CD-1, inhaled or intranasal, mouse plasma, 1 mg/kg IN
  Tmax: 0.5 h
[1]; male, Crl:CD-1, inhaled or intranasal, mouse plasma, 3 mg/kg IN
  Tmax: 0.5 h
[1]; [2]
  Tmax: 0.5 h
  half-life: 7.4 h
[1]; male, Crl:CD-1, mouse, plasma, inhaled or intranasal, 1 mg/kg, mouse plasma, 1 mg/kg IN
  AUC(0-t): 74.9 ng·h/mL
[1]; male, Crl:CD-1, mouse, plasma, inhaled or intranasal, 1 mg/kg, mouse plasma, 1 mg/kg IN, read-out: Cmax
  Cmax: 23.3 ng/mL
[1]; male, Crl:CD-1, mouse, plasma, inhaled or intranasal, 3 mg/kg, mouse plasma, 3 mg/kg IN
  AUC(0-t): 183 ng·h/mL
[1]; male, Crl:CD-1, mouse, plasma, inhaled or intranasal, 3 mg/kg, mouse plasma, 3 mg/kg IN, read-out: Cmax
  Cmax: 53.9 ng/mL
[1]; male, Crl:CD-1, mouse, plasma, inhaled or intranasal, 10 mg/kg, mouse plasma, 10 mg/kg IN
  AUC(0-t): 444 ng·h/mL
[1]; male, Crl:CD-1, mouse, plasma, inhaled or intranasal, 10 mg/kg, mouse plasma, 10 mg/kg IN, read-out: Cmax
  Cmax: 88.5 ng/mL
[1]; male, Crl:CD-1, mouse, plasma, iv, 1 mg/kg, mouse plasma, 1 mg/kg IV
  AUC(0-t): 332 ng·h/mL
[1]; male, Crl:CD-1, mouse, plasma, iv, 1 mg/kg, mouse plasma, 1 mg/kg IV, read-out: Cmax
  Cmax: 459 ng/mL
[1]; male, Crl:CD-1, mouse, plasma, po, 1 mg/kg, mouse plasma, 1 mg/kg PO
  AUC(0-t): 176 ng·h/mL
[1]; male, Crl:CD-1, mouse, plasma, po, 1 mg/kg, mouse plasma, 1 mg/kg PO, read-out: Cmax
  Cmax: 36.8 ng/mL
[1]; male, Crl:CD-1, mouse, plasma, po, 3 mg/kg, mouse plasma, 3 mg/kg PO
  AUC(0-t): 577 ng·h/mL
[1]; male, Crl:CD-1, mouse, plasma, po, 3 mg/kg, mouse plasma, 3 mg/kg PO, read-out: Cmax
  Cmax: 81.4 ng/mL
[1]; male, Crl:CD-1, mouse, plasma, po, 10 mg/kg, mouse plasma, 10 mg/kg PO
  AUC(0-t): 2250 ng·h/mL
[1]; male, Crl:CD-1, mouse, plasma, po, 10 mg/kg, mouse plasma, 10 mg/kg PO, read-out: Cmax
  Cmax: 367 ng/mL
[1]; male, Crl:CD-1, plasma, other: intranasal (IN), placed near the nares, mouse, IN, 1, 3 and 10 mg/kg, depending on the dose, read-out: Bioavailability after IN administration
  bioavailability: 13.4 to 22.6%
[1]; [3]
  Tmax: 0.083 h
  half-life: 3.95 h
[1]; [4]
  Tmax: 2 h
  half-life: 4.38 h
[1]; [5]
  Tmax: 2 h
  half-life: 3.66 h
[1]; [6]
  Tmax: 2 h
  half-life: 5.69 h
[1]; mouse plasma, 1 mg/kg IN, relative to AUClast of 1 mg/kg IV
  BA: 22.6%
[1]; mouse plasma, 1 mg/kg IV (reference for the calculation)
  BA: 100%
[1]; mouse plasma, 1 mg/kg PO, relative to AUClast of 1 mg/kg IV, 1 mg/kg
  BA: 53%
[1]; mouse plasma, 3 mg/kg IN, relative to AUClast of 1 mg/kg IV
  BA: 18.4%
[1]; mouse plasma, 3 mg/kg PO, 3 mg/kg
  Cmax: 81.3 ng/mL
[1]; mouse plasma, 3 mg/kg PO, relative to AUClast of 1 mg/kg IV
  BA: 57.9%
[1]; mouse plasma, 10 mg/kg IN, relative to AUClast of 1 mg/kg IV
  BA: 13.4%
[1]; mouse plasma, 10 mg/kg PO, 10 mg/kg
  AUClast: 2249 ng·h/mL
[1]; mouse plasma, 10 mg/kg PO, relative to AUClast of 1 mg/kg IV
  BA: 67.7%
A2B receptors
  nH (Hill coefficient), A2B: 0.98
A2B receptors; [7]
  IC50: 1220 nM
  Ki: 400 nM
